Data reported in PubChem BioAssay (NCI).
Where “and” joins values, the source holds several entries; their conditions need not be identical. Equal entries are not always repeated.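 Tested at 5 concentrations; 48 h exposure; 96-well plates; endpoints linearly interpolated, else capped at highest concentration. GI50 marks 50% less growth. At the TGI there is no net growth.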

What was measured:
Assay in all cases: NCI-60 cell line screen, 48 h
HS 578T breast = tested on: HS 578T breast
DU-145 prostate = tested on: DU-145 prostate
T-47D breast = tested on: T-47D breast
MCF7 breast = tested on: MCF7 breast
MDA-N = tested on: MDA-N
DLD-1 colon = tested on: DLD-1 colon
LXFL 529 NSCLC = tested on: LXFL 529 NSCLC

Row | SMILES | GI50 (HS 578T breast) | TGI (HS 578T breast) [µM] | GI50 (DU-145 prostate) | TGI (DU-145 prostate) [µM] | GI50 (T-47D breast) | TGI (T-47D breast) [µM] | GI50 (MCF7 breast) | TGI (MCF7 breast) [µM] | TGI (MDA-N) [µM] | GI50 (DLD-1 colon) [µM] | TGI (DLD-1 colon) [µM] | GI50 (LXFL 529 NSCLC) [µM] | TGI (LXFL 529 NSCLC) [µM]
1 | C=C1C(=O)O[C@H]2[C@H]1CC/C(COC(=O)c1ccc(C(=O)O)s1)=C\CC[C@@]1(C)O[C@@H]21 | 4.79 µM | 64.5 | 1.59 µM | 3.13 | 2.22 µM | 5.53 | – | – | – | – | – | – | –
2 | O=C1NC(=O)C(c2ccccc2Cl)=C1Nc1cccc(O)c1 | 1.82 µM | 17.7 | 9.29 µM | > 25 | > 10.4 µM | > 25 | 3990 nM | > 20.7 | – | – | – | – | –
3 | CC1=CC[C@@H]2C(C)(C)[C@@H](O)CC[C@@]2(C)[C@@H]1COc1ccc2ccc(=O)oc2c1 | 3.29 µM | 23.4 | 5.39 µM | 17.8 | 2.27 µM | 7.14 | 7300 nM | 27 | – | – | – | – | –
4 | O=C(O)c1nnsc1COCc1ccccc1 | – | > 100 | – | > 100 | – | > 100 | – | > 100 | > 100 | – | – | – | –
5 | Cc1ccc(S(=O)(=O)NCCN2c3nc4ccccc4cc3Sc3cc4ccccc4nc32)cc1 | 2.43 µM | 23.2 | > 100 µM | > 100 | 4.54 µM | > 100 | > 100000 nM | > 100 | – | – | – | – | –
6 | CC/C=C\C[C@H](O)C/C=C1/C(=O)C=C[C@@H]1C/C=C\CCCC(N)=O | 5.29 µM | 32.4 | 2.5 µM | 11 | 3.14 µM | 15.3 | 626 nM | 11.7 | – | – | – | – | –
7 | Cc1cc(O)cc(C)c1/C=C/c1cncc(C(=O)N(C)C)c1 | > 25 µM | > 25 | > 25 µM | > 25 | > 25 µM | > 25 | > 25000 nM | > 25 | – | – | – | – | –
8 | CC(C)(C)C([O-])=C1C(=O)c2ccccc2C1=O.CC(C)(C)C([O-])=C1C(=O)c2ccccc2C1=O.CC[O-].CC[O-].[Ti+4] | – | – | – | – | – | – | – | – | – | 46.9 | > 100 | 39.9 | > 100
9 | CC1(C)C(=O)/C(=C\c2ccco2)C[C@]2(C)[C@H]3CC=C4[C@@H]5C[C@](C)(C(=O)O)CC[C@]5(C)CC[C@@]4(C)[C@]3(C)CC[C@@H]12 | 18.4 µM | > 100 | 9.87 µM | 24.2 | 5.66 µM | 35.1 | 5420 nM | 26.2 | – | – | – | – | –
10 | Nc1ncnc2c1ncn2C1OC(C(=O)O)C(O)C1O (configuration not stated) | – | > 100 | – | > 100 | – | > 100 | – | > 100 | > 100 | – | – | – | –
11 | Cn1nnnc1[N-]Cc1ccccc1.[Au+].c1ccc([PH+](c2ccccc2)c2ccccc2)cc1 | – | – | – | – | – | – | – | – | – | 1.91 | 4.59 | 1.45 | 2.79
12 | NC(=O)c1ccccc1NC(=O)C(=O)C(c1cnc2ccc([N+](=O)[O-])cc2n1)[N+](=O)[O-] (configuration not stated) | – | > 100 | – | – | – | > 100 | – | > 100 | – | – | – | – | –
13 | O=c1oc2c3ccc4ccccc4c3n(Cc3nc4ccccc4[nH]3)c2c2ccccc12 | – | – | – | – | – | – | – | – | – | – | > 100 | – | > 100
14 | OCC1OC(N2C=C(c3nc4ccccc4s3)C3C=CC=CC32)C(O)C1O (configuration not stated) | 14.2 µM | > 50 | 8.2 µM | 25.8 | – | – | 5950 nM | > 50 | – | – | – | – | –
15 | CCC(=O)N1C/C(=C/c2ccc(OC)cc2)C(=O)/C(=C/c2ccc(OC)cc2)C1 | 2.35 µM | 7.47 | 2.91 µM | 10.6 | 5.1 µM | > 100 | 498 nM | 12.2 | – | – | – | – | –
16 | O=C(Nc1ccc(Br)cc1)c1cc(Br)cc(Br)c1O | 2.71 µM | 7.74 | 3.56 µM | 19.9 | 2.74 µM | 28.4 | 2460 nM | > 100 | – | – | – | – | –
17 | Cc1ccc(-c2cc3nc(-c4ccccc4)nc(C(Cl)Cl)n3n2)cc1 | 0.932 µM | 2.31 | 0.573 µM | 1.2 | 0.718 µM | 2.3 | 845 nM | 4.55 | – | – | – | – | –
18 | O=C(N/N=C/c1ccc(F)cc1)c1[nH]c2ccc(I)cc2c1-c1ccccc1 | 0.235 µM | 0.642 | 0.479 µM | 2.46 | – | – | 339 nM | 18.6 | – | – | – | – | –
19 | CCCCc1cc(O)ccc1O | 18.7 µM | > 100 | 80.7 µM | > 100 | 15.9 µM | 67.5 | 40400 nM | > 100 | – | – | – | – | –
20 | NC(N)=N/N=C/c1c(-c2cc(Cl)sc2Cl)nc2n1CCS2 | 9.23 µM | 21.8 | – | – | – | – | 10600 nM | 25.3 | – | – | – | – | –
21 | N#C/C(=C(\O)C(=O)O)c1ccc(-c2cccc3ccccc23)cc1 | – | > 100 | – | > 100 | – | > 100 | – | > 100 | > 100 | – | – | – | –
22 | COc1ccc([N+](=O)[O-])c2c(NCC(O)CO)ccnc12 (configuration not stated) | – | > 100 | – | > 100 | – | > 100 | – | > 100 | > 100 | – | – | – | –

Row | SMILES | GI50 (HS 578T breast) | TGI (HS 578T breast) [µM] | GI50 (DU-145 prostate) | TGI (DU-145 prostate) [µM] | GI50 (T-47D breast) | TGI (T-47D breast) [µM] | GI50 (MCF7 breast) | TGI (MCF7 breast) [µM] | TGI (MDA-N) [µM] | GI50 (DLD-1 colon) [µM] | TGI (DLD-1 colon) [µM] | GI50 (LXFL 529 NSCLC) [µM] | TGI (LXFL 529 NSCLC) [µM]
23 | O=S(=O)(O)c1ccc2cc(N=Nc3cc(S(=O)(=O)O)c4cccnc4c3O)ccc2c1 | – | > 100 | – | > 100 | – | > 100 | – | > 100 | > 100 | – | – | – | –
24 | COC(=O)c1ccc2c(c1)c1c(C)c3cnccc3c(C)c1n2C | 0.108 µM | 0.584 | 0.0513 µM | 1.28 | 0.28 µM | 2.25 | 109 nM | 0.511 | – | – | – | – | –
25 | CCN(CC)CC(C)Nc1ccc(C)c2sc3ccccc3c(=O)c12 (configuration not stated) | 2.29 µM | 9 | 6.68 µM | 19.1 | 3.28 µM | 19.4 | 2100 nM | 6.96 | – | – | – | – | –
26 | O=Nc1c2cccnc2n2nnc3ccc(Cl)cc3c12 | 2.84 µM | 9.89 | 0.893 µM | 2.93 | 0.412 µM | 1.7 | 792 nM | 3.39 | – | – | – | – | –
27 | OCCCNCc1ccccn1 | – | > 100 | – | > 100 | – | > 100 | – | > 100 | > 100 | – | – | – | –
28 | CCOC(=O)/C=C/c1ccc(C(=O)OCC)[nH]1 | 2.43 µM | 22.3 | 3.41 µM | 19.6 | 6.32 µM | > 100 | 3060 nM | > 100 | – | – | – | – | –
29 | c1cc(-c2sc(-c3ccncc3)c(-c3ccncc3)c2-c2ccncc2)ccn1 | – | 73.5 | – | 76 | – | > 100 | – | 52 | 29 | – | – | – | –
30 | CCOC(=O)/C(C1=CC(=O)C(=O)c2ccccc21)=C(/C)NCc1ccccc1 | 2.54 µM | 6.96 | 1.79 µM | 3.32 | 2.27 µM | > 100 | 2050 nM | 4.75 | – | – | – | – | –
31 | CN(C)CCNC(=O)c1cccc(CO)c1[N+](=O)[O-] | – | > 100 | – | > 100 | – | > 100 | – | > 100 | > 100 | – | – | – | –
32 | CN(C)CCNc1cccc2sc3ccc(O)cc3c(=O)c12 | 1.75 µM | 11.8 | 1.12 µM | 11.2 | 2.56 µM | 12.8 | 1140 nM | 2.96 | – | – | – | – | –
33 | OC1CCC(Oc2cccc3cnc(Nc4ccc5nc[nH]c5c4)nc23)CC1 (configuration not stated) | 0.728 µM | 8.32 | 0.246 µM | 17.2 | 1.03 µM | 14.4 | 217 nM | 3.1 | – | – | – | – | –
34 | O=C1OCC2=Nc3cccc4cccc(c34)N12 | – | > 100 | – | > 100 | – | > 100 | – | > 100 | – | – | – | – | –
35 | O=[N+]([O-])/C=C\c1ccc2c(c1)OCO2 | 3.47 µM | 19.9 | 3.07 µM | 10.2 | 5.27 µM | 26.2 | 1990 nM | 10.4 | – | – | – | – | –
36 | OC1CCC(C2C3CCCCC3C3CCCCC3C2C2CCC(O)CC2)CC1 (configuration not stated) | – | > 100 | – | > 100 | – | 11 | – | 34.3 | – | – | – | – | –
37 | Cc1ccc2c(c1)sc(-c1ccc(N(C)C)cc1)[n+]2C | 6.39 µM | > 87.7 | 1.95 µM | 32 | 0.299 µM | 5.59 | 745 nM | 28.3 | – | – | – | – | –
38 | COC1C(=O)CCC2(CO2)C1(O)C1(C)OC1CCC(C)C (configuration not stated) | – | > 100 | – | > 100 | – | > 100 | – | > 100 | > 100 | – | – | – | –
39 | C=C1C(O)C2C(=C(CC(C)C)C13CC3)C(=O)C(C)(C)C2OC (configuration not stated) | > 100 µM | > 100 | > 100 µM | > 100 | > 100 µM | > 100 | > 100000 nM | > 100 | – | – | – | – | –
40 | ClCCn1cnc2c(SCc3ccccc3)ncnc21 | 15.4 µM | > 100 | 3.82 µM | > 100 | 11.7 µM | > 100 | 1650 nM | > 100 | – | – | – | – | –
41 | O=C1/C(=C\c2cccs2)Oc2ccccc21 | – | > 100 | – | > 100 | – | 10.8 | – | > 100 | > 100 | – | – | – | –
42 | Cn1cnc([N+](=O)[O-])c1Sc1ncnc2nc[nH]c12 | 4.8 µM and 3.86 µM | > 100 | 3.03 µM and 4.36 µM | > 100 | 2.75 µM and 4.51 µM | > 100 | 2920 nM and 3690 nM | > 100 | – | – | – | – | –
43 | CCN(CC)C(=S)SSC1CCCCC1 | 27.4 µM | 88.2 | 20.3 µM | 45.5 | 22.2 µM | 66.4 | 14400 nM | 30.4 | – | – | – | – | –
